# Test results as given in patent US7262289B2, “KCNQ potassium channels and methods of modulating same” (Bristol-Myers Squibb Co., priority 1997, dated 2007).
# Where two headings read alike, the source gives them in different places.
# What was measured:
# KCNQ2+KCNQ3 = molecular target: T1, KCNQ2+KCNQ3 (Homo sapiens, UniProt O43525+O43526, DEL509-509/N780T); type: cell-based
# T1 construct: The full-length cDNAs were subcloned into a Xenopus expression vector, derived from pSP64T plasmid; expressed in transfected cells; host or cells: Xenopus laevis oocytes (co-injection of cRNAs)
# Protocol: FIGS. 19A-19F show co-expression of KCNQ2 and KCNQ3. […] Currents were recorded using the protocol in FIGS. 19A-19C. […] The dashed line has a slope predicted by the Nernst equation for a perfectly selective K^+ channel. Each value is the mean±SEM from 6 oocytes. […] Superimposed currents were recorded during 1 sec steps to +20 mV, from […], during the same experiment. Compounds were applied via bath perfusion in order from top to bottom.
# (§1) Stage V and VI Xenopus laevis oocytes were defolliculated with collagenase treatment and injected with cRNAs, as described in Yang et al., supra. Currents were recorded at room temperature using the two-microelectrode voltage clamp (Dagan TEV-200) technique between 3-5 days after injection of KCNQ2 (15 ng), KCNQ3 (15 ng), or KCNE1 (2 ng) cRNA alone or in combination. Microelectrodes (0.8 to 1.5 MΩ) were filled with 3 M KCl . Bath solution contained (in mM): 96 NaCl, 2 KCl , 0.4-1.8 CaCl2, 1-2 MgCl2 and 5 HEPES (pH 7.5). KCl was varied in some experiments by equimolar substitution with NaCl.
# (§2) Axoclamp (Axon Instruments) was used for generating voltage clamp commands and acquiring data and Axograph 3.0 (Axon Instruments) was used for data analysis. All data was sampled at rates at least two times the low pass filter rate. Experiments were performed at 22-25° C.
# human KCNQ2/KvLR1 = molecular target: T2, human KCNQ2/KvLR1 (Homo sapiens, UniProt O43526, DEL509-509/N780T); type: cell-based
# T2 construct: The full-length human KCNQ2 and KCNQ3 cDNAs were subcloned into a Xenopus expression vector and cRNA was generated by in vitro transcription; expressed in transfected cells; host or cells: Xenopus laevis oocytes (cRNA injection)
# Protocol: Superimposed currents were recorded during 1 second steps to +30 mV, from −80 mV, during the same experiment. Compounds were applied via bath perfusion in order from top to bottom. The bath was perfused with control solution for 5 minutes, or until effects reversed completely, between compounds.
# Inhibitors of various potassium channels present in brain and other tissues were used to investigate the pharmacology of KCNQ2/KvLR1.
# as §1, §2
# KCNQ3 = molecular target: T3, KCNQ3 (Homo sapiens, UniProt O43525); type: cell-based
# T3 construct: The full-length human KCNQ2 and KCNQ3 cDNAs were subcloned into a Xenopus expression vector and cRNA was generated by in vitro transcription; expressed in transfected cells; host or cells: Xenopus laevis oocytes (cRNA injection)
# Protocol: FIGS. 18A-18D show the functional characterization of KCNQ3 currents. […] Currents were recorded using the protocol in FIG. 18A. […] Each value is the mean±SEM from 6 oocytes. […] Superimposed currents were recorded during 1 sec steps to +20 mV, from −80 mV, during the same experiment. Compounds were applied via bath perfusion in order from top to bottom. The bath was perfused with control solution for 5 min, or until effects reversed completely, between compounds.
# as §1, §2
# KCNQ1/KvLQT1 [1] = molecular target: T4, KCNQ1/KvLQT1 (Homo sapiens, UniProt P51787); conditions: from Yang et al. (1997); cited from earlier work
# minK+human KCNQ2/KvLR1 = minK+human KCNQ2/KvLR1 (Homo sapiens, UniProt O43526); conditions: 1 mM, steps to +40 mV from −80 mV
# minK+human KCNQ2/KvLR1, sequence (O43526 whole entry): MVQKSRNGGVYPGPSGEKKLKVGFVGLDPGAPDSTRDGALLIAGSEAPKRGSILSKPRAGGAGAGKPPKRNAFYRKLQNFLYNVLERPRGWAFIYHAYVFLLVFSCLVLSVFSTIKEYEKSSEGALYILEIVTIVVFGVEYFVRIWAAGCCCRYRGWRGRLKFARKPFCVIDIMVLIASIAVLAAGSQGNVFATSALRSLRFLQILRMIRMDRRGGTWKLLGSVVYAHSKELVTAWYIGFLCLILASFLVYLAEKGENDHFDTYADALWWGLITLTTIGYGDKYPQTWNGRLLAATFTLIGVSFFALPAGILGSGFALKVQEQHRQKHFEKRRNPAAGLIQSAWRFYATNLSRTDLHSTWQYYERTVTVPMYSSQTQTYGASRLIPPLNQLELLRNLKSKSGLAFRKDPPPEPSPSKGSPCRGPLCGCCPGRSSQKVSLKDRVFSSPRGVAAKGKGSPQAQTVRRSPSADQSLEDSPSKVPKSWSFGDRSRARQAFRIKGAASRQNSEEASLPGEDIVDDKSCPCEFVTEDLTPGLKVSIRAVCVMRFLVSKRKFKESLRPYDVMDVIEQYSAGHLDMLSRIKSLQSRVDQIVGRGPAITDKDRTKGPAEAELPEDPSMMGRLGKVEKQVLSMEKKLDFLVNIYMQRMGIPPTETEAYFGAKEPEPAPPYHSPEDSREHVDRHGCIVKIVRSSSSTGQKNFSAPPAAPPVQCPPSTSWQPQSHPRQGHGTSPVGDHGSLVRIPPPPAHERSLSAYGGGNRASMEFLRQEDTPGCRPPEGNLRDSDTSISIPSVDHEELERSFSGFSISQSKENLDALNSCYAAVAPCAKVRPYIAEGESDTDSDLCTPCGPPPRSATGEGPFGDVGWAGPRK
# Protocol: as §1
# murine KCNQ2/KvLR1 = molecular target: T5, murine KCNQ2/KvLR1 (Mus musculus, UniProt Q9Z351, DEL481-481/H600Q/P326Q); assay: murine KCNQ2/KvLR1-mediated whole-cell currents in Xenopus oocytes, 2-electrode voltage clamp; type: cell-based; conditions: for effect on murine KCNQ2-mediated currents: concentration not given
# T5 construct: Also disclosed is a full-length murine cDNA clone of KCNQ2 (murine KvLR1); expressed in transfected cells; host or cells: Xenopus oocytes (cRNA injection)
# Protocol: FIGS. 15A and 15B show electrophysiology characterization of mouse KCNQ2/KvLR1-mediated whole-cell currents expressed in Xenopus oocytes.
# To test for functional expression, cRNA was prepared from the murine KCNQ2/KvLR1 gene and injected into Xenopus oocytes. In a two-electrode voltage clamp, a family of outward currents were generated in murine KCNQ2/KvLR1 cRNA-injected oocytes (n>20). After a minimum of 48 hours, currents qualitatively and quantitatively different than native currents generated with identical protocols in water injected or uninjected control cells (representing Ca^2+-activated chloride currents and other native currents) (FIG. 15). […] Similar currents were obtained from CHO cells stably expressing murine KCNQ2 and recorded using patch-clamp techniques. Single channel conductances were estimated to be 24-30 pS in symmetrical 140 mM potassium. (FIG. 22).
# The murine KCNQ2/KvLR1 cDNAs were linearized with the restriction enzyme NotI and in vitro transcribed using the mMessage mMachine T7 RNA polymerase kit according to the manufacturer's instructions (Ambion, Austin, Tex.). The cRNAs were solubilized in RNase-free water, and stored at −70° C. at a concentration of 1.0 μg/μl. Frog oocytes were prepared and injected using standard techniques (Colman, 1984). In murine KvLR1 expression experiments, each oocyte was injected with approximately 35-40 nl of the cRNA. Following injection, oocytes were maintained at 17° C., in ND96 medium consisting of (in mM): NaCl, 90; KCl, 1.0; CaCl2, 1.0; MgCl2, 1.0; HEPES, 5.0; pH 7.5. Horse serum and penicillin/streptomycin, both 5% of final volume, were added as supplements to the incubation medium. Electrophysiological recording commenced 2-6 days following cRNA injection. Prior to the start of an experiment oocytes were placed in a recording chamber and incubated in Modified Barth's Solution (MBS) consisting of (in mM): NaCl, 88; NaHCO3, 2.4; KCl, 1.0; HEPES, 10; MgSO4, 0.82; Ca(NO3)2, 0.33; CaCl2, 0.41; pH 7.5. Oocytes were impaled with electrodes (1-2 MΩ) and standard 2-electrode voltage clamp techniques were employed to record whole-cell membrane currents (Stuhmer, 1992; TEC 200, Dagan Instruments). Voltage-clamp protocols typically consisted of a series of voltage steps 100-500 ms duration, in +10 mV steps from a holding potential of −60 mV to −90 mV to a maximal potential of +40 mV to +50 mV; records were digitized at 5 kHz and stored on a computer using pClamp 6.0 software (Axon Instruments), and analyzed using ClampFit or AxoGraph software (Axon Instruments).
# KCNQ1/KvLQT1 [2] = molecular target: T4, KCNQ1/KvLQT1; assay: KCNQ1/KvLQT1 currents (comparison); type: cell-based; conditions: no citation, concentration not given
# [3] = 10 μM, steps to +30 mV from −80 mV
compound,measurement,setting,value
"Nc1ccncc1 [4-AP, 4-aminopyridine]",sensitivity of KCNQ2+KCNQ3 current to inhibition,KCNQ2+KCNQ3; 2 mM,not
same,effect on KCNQ2/KvLR1 current,human KCNQ2/KvLR1; 0.2 mM,Neither E-4031 nor 4-AP produced significant effects
same,effect on KCNQ3 current,KCNQ3; 2 mM,no effect
same,inhibition of KCNQ1/KvLQT1 currents,KCNQ1/KvLQT1 [1],do not inhibit
Cc1cccc(CCN2CCC(C(=O)c3ccc(NS(C)(=O)=O)cc3)CC2)n1 [E-4031],sensitivity of KCNQ2+KCNQ3 current to inhibition,KCNQ2+KCNQ3; 10 μM,did not inhibit
same,effect on KCNQ2/KvLR1 current,human KCNQ2/KvLR1; [3],Neither E-4031 nor 4-AP produced significant effects
same,effect on KCNQ3 current,KCNQ3; 10 μM,no effect
same,inhibition of KCNQ1/KvLQT1 currents,KCNQ1/KvLQT1 [1],do not inhibit
"CC[N+](CC)(CC)CC [TEA, tetraethylammonium]",sensitivity of KCNQ2+KCNQ3 current to inhibition,KCNQ2+KCNQ3,weakly sensitive to inhibition
same,effect on minK+human KCNQ2/KvLR1 currents,minK+human KCNQ2/KvLR1,partially inhibited
same,effect on KCNQ2 current,human KCNQ2/KvLR1,strongly inhibited
same,effect on KCNQ3 current,KCNQ3,little inhibition
same,block of murine KCNQ2/KvLR1-mediated currents,murine KCNQ2/KvLR1,blocked
CCCCCCC[N+](CC)(CC)CCCCc1ccc(Cl)cc1 [clofilium],sensitivity of KCNQ2+KCNQ3 current to inhibition,KCNQ2+KCNQ3; 10 μM,weakly sensitive to inhibition
same,effect on KCNQ2/KvLR1 current,human KCNQ2/KvLR1; [3],little effect
same,reduction of KCNQ3 current from control,KCNQ3; 10 μM,30%
same,inhibition of KCNQ1/KvLQT1 currents,KCNQ1/KvLQT1 [1],strong inhibitor
same,block of murine KCNQ2-mediated currents,"murine KCNQ2/KvLR1; 20 μM, depolarized from −80 to +40",partially block
Charybdotoxin,sensitivity of KCNQ2+KCNQ3 current to inhibition,KCNQ2+KCNQ3; 100 nM,not
same,effect on KCNQ1/KvLQT1,KCNQ1/KvLQT1 [2],no effect
same,effect on KCNQ2/KvLR1 current,human KCNQ2/KvLR1; 0.1 mM (concentration tested),did not inhibit
same,effect on KCNQ3 current,KCNQ3; 100 nM,no effect
same,effect on murine KCNQ2-mediated currents,murine KCNQ2/KvLR1,no significant effect
iberiotoxin: specific K+ channel blocking toxin (QFTDVDCSVSKECWSVCKDLFGVDRGKCMGKKCRCYQ),effect on murine KCNQ2-mediated currents,murine KCNQ2/KvLR1,no significant effect
α-dendrotoxin (QPRRKLCILHRNPGRCYDKIPAFYYNQKKKQCERFDWSGCGGNSNRFKTIEECRRTCIG),effect on murine KCNQ2-mediated currents,murine KCNQ2/KvLR1,no significant effect
